Patent publication US20180327375A1, “AROMATIC SURFACTANTS” (REGENTS OF THE UNIVERSITY OF MINNESOTA, priority 2015, published 2018)
Where “and” joins values, the source holds several entries; their conditions need not be identical. Equal entries are not always repeated. Structures can show the parent of a compound that is named as a salt. Where two headings read alike, the source gives them in different places.

Assays:
Assay type in all cases: physicochemical
[1] = Krafft point by conductivity vs temperature; settings: 1.0 wt % surfactant in water (2.0 wt % for OFS-12-1/O)
Method: Krafft point or Krafft temperature is the minimum temperature at which surfactants form micelles. Below Krafft point, the surfactants precipitate out of solution and remain in the crystalline phase. FIG. 30 depicts the apparatus utilized for the measurement of Krafft points. A 1.0 wt % solution of surfactant in deionized water was prepared for all surfactants except in the case of OFS-12-1/O where a 2.0 wt % solution was used instead, since its CMC is roughly about 1.1 wt %. 50 mL of the prepared solution was poured into a beaker surrounded by a freezing mixture of ice and salt (sodium chloride) mounted on a laboratory hot plate with magnetic stirring. The Krafft point (TK) of the surfactants was measured by estimating the degree of counterion dissociation using a conductivity meter (COND 6+, Oakton/Eutech Instruments) immersed in the surfactant solution capable of measuring both, conductivity and temperature. The magnetic stirring speed was set to 650 rpm and the solution was first allowed to cool to 0° C. Upon attainment of this temperature, the solution was slowly heated and the conductivity was measured in every 0.5° C. increments until it reached a steady value. […] Visually, this corresponded to the surfactant solution transitioning from a turbid system due to the precipitated surfactant crystals below the Krafft point to a clear solution indicating the dissolution of surfactants and the formation of micelles in water.
For the OFS-Cocinic, n=8-18 surfactant, the conductivity vs temperature plot was erratic, which is attributed to the presence of 6 different surfactants in the mixture. The solution changed from turbid to clear at approximately 18.5° C. which was, therefore, reported as the Krafft point. Methyl Ester Sulfonate (MES), Sodium Lauryl Ether Sulfate (SLES), OFS-7 and all OFS-n-1/O surfactant solutions remained clear even at 0° C.; the Krafft point was thus reported as <0° C.

[2] = Hardness tolerance / hard water stability (surface tension and turbidity vs CaCl2 concentration); settings: for Turbid conc.: onset of turbidity
Excerpt: Precipitation of the anionic surfactant from hard water is an undesired process in detergency. The tendency of the anionic surfactants to precipitate is quantified by analyzing hardness tolerance. Hardness tolerance is the minimum concentration of counterion, such as, Ca^2+ and Mg^2+, precipitating with surfactant, resulting in deactivation of the surfactant performance (C. H. Rodriguez, L. H. Lowery, J. F. Scamehorn, J. H. Harwell, Kinetics of precipitation of surfactants. I. Anionic surfactants with calcium and with cationic surfactants. Journal of Surfactants and Detergents 4, 1-14 (2001); C. H. Rodriguez, C. Chintanasathien, J. F. Scamehorn, C. Saiwan, S. Chavadej, Precipitation in solutions containing mixtures of synthetic anionic surfactant and soap. I. Effect of sodium octanoate on hardness tolerance of sodium dodecyl sulfate. Journal of Surfactants and Detergents 1, 321-328 (1998); and J. F. Scamehorn, “Precipitation of mixtures of anionic surfactants” in mixed Surfactant systems ACS Symposium Series (American Chemical Society: Washington D.C., 1992), pp. 392-401). Calcium chloride was used as a divalent counterion, and surface tension of the surfactant solution was measured with increasing concentration of CaCl2 from 1 mM to 450 mM. The value of calcium concentration above which the surface tension of the surfactant solution increased was recorded as the tolerance value of the surfactant towards calcium as indicated by the dashed red line in FIGS. 46A to 49B.
All experiments were carried out at a concentration equal to twice CMC of each surfactant, and the point of transition from a clear solution to a turbid one was also monitored. FIGS. 50A to 50E illustrate this effect for a linear alkylbenzene sulfonate (LAS) solution. Below the turbid point, the surfactant solution was clear as shown by FIGS. 50B and 50C which changed to a cloudy solution at calcium concentrations equal to and greater than the turbid point (FIG. 50D and FIG. 50E). The point of micelle stability was marked by an increase in the surface tension of the surfactant solution with an increase in calcium concentration. FIG. 50C corresponds to the micelle stability concentration and FIG. 50D corresponds to the turbid concentration. Micelle stability is defined as the calcium concentration at the increasing point of surface tension, and turbid concentration marks the onset of turbidity in the surfactant solution The solution transitions from clear to turbid as shown in FIGS. 50B to 50E

[3] = Particle size distribution of micelles via dynamic light scattering (DLS)
Method: Dynamic Light Scattering (DLS) has been used in the past for studying surfactant aggregates (N. Vlachy, M. Drechsler, J.-M. Verbavatz, D. Touraud, W. Kunz, Role of surfactant headgroup on the counterion specificity in the micelle-to-vesicle transition through salt addition. J. Colloid Interface Sci. 319, 542-548 (2008)). Micelle size distribution studies of the OFS-12 surfactant was performed using the Microtrac NANO-flex analyzer which employs a 180° scattering angle DLS technique. Two different surfactant concentration samples were prepared (5.0 and 10×CMC, 0.35 and 0.7 wt %) by dissolving the required amount of surfactant in deionized water and filtering the solution after surfactant dissolution using a 0.2μ micropore filter to remove any dust particles. Prior to each sample run, a blank solution (DI water) was used to set the baseline to zero. FIGS. 26A and 26B show the average particle size distribution plots for the surfactant solutions. The average values were computed based on five individual trials each lasting 120 sec.

| Compound | Krafft Point [1] | Micelle Stability [2] | Micelle stability conc. [2] | Turbid conc. ([2]; surfactant at twice CMC) | Average micelle size (number distribution) ([3]; surfactant concentration 5.0×CMC in deionized water) [nm] | Average micelle size (number distribution) ([3]; surfactant concentration 10.0×CMC in deionized water) [nm] | Krafft Point ([1]; sulfate) | Micelle stability conc. ([2]; surfactant at twice CMC) | Micelle Stability ([2]; surfactant at twice CMC, calcium concentration where surface tension starts to increase) [ppm Ca^2+] |
| --- | --- | --- | --- | --- | --- | --- | --- | --- | --- |
| CCCCCCCc1ccc(S(=O)(=O)[O-])o1.[Na+] [OFS-7, Sodium 5-Heptylfuran-2-Sulfonate] | < 0 °C | 120 ppm Ca^2+ | 110 ppm of CaCl2 | 230 ppm of CaCl2 | – | – | – | – | – |
| CCCCCCCCCCCCc1ccc(S(=O)(=O)[O-])o1.[Na+] [OFS-12, Sodium 5-Dodecylfuran-2-Sulfonate] | 30 °C and 30.0 ± 1.0 °C | > 50,000 ppm Ca^2+ | >50,000 ppm of CaCl2 | 10,000 ppm of CaCl2 | 7.41 | 6.29 | – | – | – |
| CCCCCCCCCCCCCCc1ccc(S(=O)(=O)[O-])o1.[Na+] [OFS-14, Sodium 5-Tetradecylfuran-2-Sulfonate] | 41.5 °C and 41.5 ± 0.9 °C | > 50,000 ppm Ca^2+ | >50,000 ppm of CaCl2 | 2,000 ppm of CaCl2 | – | – | – | – | – |
| CCCCCCCCCCCCOS(=O)(=O)O [SLS, sodium dodecyl sulfate, reference compound] | – | – | – | 33 ppm of CaCl2 | – | – | 15 °C and 15.0 ± 1.2 °C | 33 ppm of CaCl2 | 33 |
| sodium lauryl ether sulfate [SLES, reference compound] | <0 °C | > 50,000 ppm Ca^2+ | >50,000 ppm of CaCl2 | >50,000 ppm of CaCl2 | – | – | – | – | – |
